Test results published in patent US20180194762A1 (Pharmacyclics LLC, priority 2017, published 2018).

Key:
Assay type in all cases: biochemical
Btk = molecular target: T1, Btk (Homo sapiens, UniProt Q06187); test: Btk in vitro inhibitory activity (one of Method A TR-FRET, Method B electrophoretic mobility shift, Method C radiometric filter binding); details: wild-type Btk; read-out: Btk-WT IC50
T1 construct: purified from insect cells as a full-length construct containing a N-terminal 6X-His tag; His6 (N); made in house; host or cells: insect cells (Method C)
T1 sequence (Q06187 whole entry): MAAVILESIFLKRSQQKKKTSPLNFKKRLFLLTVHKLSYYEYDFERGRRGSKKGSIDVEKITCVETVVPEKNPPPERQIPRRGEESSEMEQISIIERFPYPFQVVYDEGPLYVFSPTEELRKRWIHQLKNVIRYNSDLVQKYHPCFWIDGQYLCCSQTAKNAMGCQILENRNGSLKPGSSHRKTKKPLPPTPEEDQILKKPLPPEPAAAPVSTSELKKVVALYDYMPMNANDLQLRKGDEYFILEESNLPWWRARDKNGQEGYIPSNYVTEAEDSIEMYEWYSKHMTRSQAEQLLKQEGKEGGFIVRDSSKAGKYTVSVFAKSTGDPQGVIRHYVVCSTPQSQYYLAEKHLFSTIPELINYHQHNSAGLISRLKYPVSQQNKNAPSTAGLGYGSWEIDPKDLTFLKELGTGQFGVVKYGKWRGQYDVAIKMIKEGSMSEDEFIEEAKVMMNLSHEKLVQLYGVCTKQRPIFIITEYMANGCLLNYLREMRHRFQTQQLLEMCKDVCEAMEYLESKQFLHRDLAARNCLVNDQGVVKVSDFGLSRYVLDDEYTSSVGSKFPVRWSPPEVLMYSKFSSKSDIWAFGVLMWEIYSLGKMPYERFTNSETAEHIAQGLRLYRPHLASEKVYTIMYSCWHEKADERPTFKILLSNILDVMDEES
In short: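 Method A: TR-FRET with 0.5 nM Btk at [ATP]=Km, EDTA-quenched, 665/615 nm ratio; Ki(app) converted to IC50. Method B: 1 nM full-length His6 human BTK, 1 μM FAM peptide, pH 7.5, mobility-shift product/sum ratio, 12-point 4-parameter fit. Method C: radiometric filter binding, 8 nM His-tagged BTK, 0.2 mg/mL poly-Glu-Tyr.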

TEC = molecular target: T2, TEC (Homo sapiens, UniProt P42680); test: Inhibition of a panel of kinases (in vitro HotSpot kinase assay, 33P-ATP, 1 μM ATP); details: for IC50: HotSpot kinase assay, 1 μM ATP; for TEC/Btk: ratio of TEC IC50 to Btk IC50 (selectivity)
T2 sequence (P42680 1-631): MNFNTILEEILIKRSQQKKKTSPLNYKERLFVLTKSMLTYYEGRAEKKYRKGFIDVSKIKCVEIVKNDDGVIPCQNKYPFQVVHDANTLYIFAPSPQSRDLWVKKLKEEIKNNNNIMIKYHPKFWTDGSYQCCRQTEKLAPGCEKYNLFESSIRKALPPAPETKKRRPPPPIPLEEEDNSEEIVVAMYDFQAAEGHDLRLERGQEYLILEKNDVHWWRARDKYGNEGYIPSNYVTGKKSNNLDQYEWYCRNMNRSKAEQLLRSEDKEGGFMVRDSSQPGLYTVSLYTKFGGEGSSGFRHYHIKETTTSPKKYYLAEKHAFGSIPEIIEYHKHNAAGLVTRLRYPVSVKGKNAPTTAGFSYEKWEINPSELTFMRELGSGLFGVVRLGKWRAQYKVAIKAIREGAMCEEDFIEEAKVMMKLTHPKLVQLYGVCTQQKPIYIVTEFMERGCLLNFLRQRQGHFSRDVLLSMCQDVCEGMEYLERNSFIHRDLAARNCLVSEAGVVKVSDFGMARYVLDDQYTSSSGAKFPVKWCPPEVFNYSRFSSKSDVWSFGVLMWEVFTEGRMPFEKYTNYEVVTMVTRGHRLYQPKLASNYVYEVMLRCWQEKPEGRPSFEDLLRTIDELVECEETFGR
In short: (§1)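 Purified kinase enzymes were incubated with an appropriate substrate and 33P-labelled ATP at 1 μM ATP. Inhibition was measured radiometrically from incorporation of the 33P label.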

panel of kinases = molecular target: T3, panel of kinases (Homo sapiens, UniProt P51813); test: Inhibition of a panel of kinases (in vitro HotSpot kinase assay, 33P-ATP, 1 μM ATP), other kinases; details: BMX wild-type, read-out: BMX-WT IC50
T3 sequence (P51813 1-675): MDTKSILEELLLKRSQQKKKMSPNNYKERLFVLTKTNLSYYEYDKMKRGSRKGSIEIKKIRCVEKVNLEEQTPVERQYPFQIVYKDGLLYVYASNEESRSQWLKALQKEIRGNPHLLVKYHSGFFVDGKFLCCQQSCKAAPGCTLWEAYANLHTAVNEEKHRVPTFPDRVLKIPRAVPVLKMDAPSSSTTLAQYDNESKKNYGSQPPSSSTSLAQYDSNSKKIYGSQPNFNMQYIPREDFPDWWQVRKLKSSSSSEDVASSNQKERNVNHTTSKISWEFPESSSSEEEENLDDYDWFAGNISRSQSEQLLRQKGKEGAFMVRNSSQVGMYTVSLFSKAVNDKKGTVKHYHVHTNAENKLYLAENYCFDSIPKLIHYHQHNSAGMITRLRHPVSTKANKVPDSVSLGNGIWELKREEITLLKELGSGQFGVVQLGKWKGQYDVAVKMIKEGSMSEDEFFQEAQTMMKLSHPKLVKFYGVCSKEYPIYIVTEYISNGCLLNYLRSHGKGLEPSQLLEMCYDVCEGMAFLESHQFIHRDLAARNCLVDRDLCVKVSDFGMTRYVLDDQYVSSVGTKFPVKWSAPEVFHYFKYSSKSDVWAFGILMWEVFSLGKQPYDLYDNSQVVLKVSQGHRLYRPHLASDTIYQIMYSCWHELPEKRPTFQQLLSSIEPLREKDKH
In short: as §1

SMILES	IC50 (Btk) [µM]	IC50 (TEC) [µM]	TEC/Btk (TEC)	IC50 (panel of kinases) [µM]
C[C@H]1CC[C@@H](Nc2n[nH]c3nccc(-c4ccc(CNC(=O)c5noc(C(C)(C)C)n5)c(F)c4)c23)CN1C(=O)N1CCOCC1 [Example 230, 5-tert-butyl-N-{[2-fluoro-4-(3-{[(3R,6S)-6-methyl-1-(morpholine-4-carbonyl)piperidin-3-yl]amino}-1H-pyrazolo[3,4-b]pyridin-4-yl)phenyl]methyl}-1,2,4-oxadiazole-3-carboxamide]	0.000412	0.472	1146	0.856
C[C@@H](NC(=O)c1nc(C(C)(C)C)no1)c1ccc(-c2ccnc3[nH]nc(N4CCNCC4)c23)cc1 [Example 238, 3-tert-butyl-N-[(1R)-1-{4-[3-(piperazin-1-yl)-1H-pyrazolo[3,4-b]pyridin-4-yl]phenyl}ethyl]-1,2,4-oxadiazole-5-carboxamide]	0.00424	4.61	1087	2.67
C[C@H]1CC[C@@H](Nc2n[nH]c3nccc(-c4ccc(CN5CCn6c(cc7c6CC(C)(C)C7)C5=O)c(F)c4)c23)CN1C(=O)N(C)C [Example 239, (2S,5R)-5-[(4-{4-[(7,7-dimethyl-1-oxo-1,3,4,6,7,8-hexahydro-2H-cyclopenta[4,5]pyrrolo[1,2-a]pyrazin-2-yl)methyl]-3-fluorophenyl}-1H-pyrazolo[3,4-b]pyridin-3-yl)amino]-N,N,2-trimethylpiperidine-1-carboxamide]	0.0101	3.88	384	3.78
C[C@H]1CC[C@@H](Nc2n[nH]c3nccc(-c4ccc(CN5CCn6c(cc7c6CCCC7)C5=O)c(F)c4)c23)CN1C(=O)N(C)C [Example 240, (2S,5R)-5-[(4-{3-fluoro-4-[(1-oxo-3,4,6,7,8,9-hexahydropyrazino[1,2-a]indol-2(1H)-yl)methyl]phenyl}-1H-pyrazolo[3,4-b]pyridin-3-yl)amino]-N,N,2-trimethylpiperidine-1-carboxamide]	0.0055	5.03	915	0.387
CN1CCCN([C@@H]2CCN(c3n[nH]c4nccc(-c5ccc(CNC(=O)c6nc(C(C)(C)C)no6)c(F)c5)c34)C2)C1=O [Example 241, 3-tert-butyl-N-[(2-fluoro-4-{3-[(3R)-3-(3-methyl-2-oxo-1,3-diazinan-1-yl)pyrrolidin-1-yl]-1H-pyrazolo[3,4-b]pyridin-4-yl}phenyl)methyl]-1,2,4-oxadiazole-5-carboxamide]	0.00473	5.56	1175	5.01
C[C@@H](NC(=O)c1nc(C(C)(C)C)no1)c1ccc(-c2ccnc3[nH]nc(C4=CCCN(C(=O)N(C)C)C4)c23)cc1 [Example 243, 5-[4-(4-{(1R)-1-[(3-tert-butyl-1,2,4-oxadiazole-5-carbonyl)amino]ethyl}phenyl)-1H-pyrazolo[3,4-b]pyridin-3-yl]-N,N-dimethyl-3,6-dihydropyridine-1(2H)-carboxamide]	0.00439	5.88	1339	4.45
C[C@@H](NC(=O)c1nc(C(C)(C)C)no1)c1ccc(-c2ccnc3[nH]nc(C4CCN(C(=O)N(C)C)CC4)c23)cc1 [Example 244, 4-[4-(4-{(1R)-1-[(3-tert-butyl-1,2,4-oxadiazole-5-carbonyl)amino]ethyl}phenyl)-1H-pyrazolo[3,4-b]pyridin-3-yl]-N,N-dimethylpiperidine-1-carboxamide]	0.00163	9.55	5859	5.87
CN1CCCN([C@@H]2CCN(c3n[nH]c4nccc(-c5ccc(CNC(=O)c6noc(C(C)(C)C)n6)c(F)c5)c34)C2)C1=O [Example 250, 5-tert-butyl-N-[(2-fluoro-4-{3-[(3R)-3-(3-methyl-2-oxo-1,3-diazinan-1-yl)pyrrolidin-1-yl]-1H-pyrazolo[3,4-b]pyridin-4-yl}phenyl)methyl]-1,2,4-oxadiazole-3-carboxamide]	0.0117	6.92	591	8.37
CC(C)(C)c1nc(C(=O)NCc2ccc(-c3ccnc4[nH]nc(N5CCC[C@H](C(=O)O)C5)c34)cc2F)no1 [Example 252, (3S)-1-[4-(4-{[(5-tert-butyl-1,2,4-oxadiazole-3-carbonyl)amino]methyl}-3-fluorophenyl)-1H-pyrazolo[3,4-b]pyridin-3-yl]piperidine-3-carboxylic acid]	0.000511	0.386	755	0.529
CC(C)(C)c1noc(C(=O)NCc2ccc(-c3ccnc4[nH]nc(C5CC5)c34)cc2F)n1 [Example 255, 3-tert-butyl-N-{[4-(3-cyclopropyl-1H-pyrazolo[3,4-b]pyridin-4-yl)-2-fluorophenyl]methyl}-1,2,4-oxadiazole-5-carboxamide]	0.00126	1.63	1294	1.36
C[C@H]1CC[C@@H](Nc2n[nH]c3nccc(-c4ccc(CNC(=O)c5noc(C(C)(C)C)n5)cc4)c23)CN1C(=O)N(C)C [Example 256, (2S,5R)-5-{[4-(4-{[(5-tert-butyl-1,2,4-oxadiazole-3-carbonyl)amino]methyl}phenyl)-1H-pyrazolo[3,4-b]pyridin-3-yl]amino}-N,N,2-trimethylpiperidine-1-carboxamide]	0.00835	3.59	430	5.44
CC(C)(C)c1nc(C(=O)NCc2ccc(-c3ccnc4[nH]nc(NC5CCCC5)c34)cc2F)no1 [Example 257, 5-tert-butyl-N-({4-[3-(cyclopentylamino)-1H-pyrazolo[3,4-b]pyridin-4-yl]-2-fluorophenyl}methyl)-1,2,4-oxadiazole-3-carboxamide]	0.0101	5.07	502	3.96
C=CC(=O)N1CC[C@@H](Nc2n[nH]c3nccc(-c4cccc(NC(=O)c5ccc(C(C)(C)C)cc5)c4)c23)C1 [Example 263, 4-tert-butyl-N-[3-(3-{[(3R)-1-(prop-2-enoyl)pyrrolidin-3-yl]amino}-1H-pyrazolo[3,4-b]pyridin-4-yl)phenyl]benzamide]	0.0116	1.07	092	0.44
C=CC(=O)N1CC[C@@H](Nc2n[nH]c3nccc(-c4cccc(NC(=O)c5noc(C(C)(C)C)n5)c4)c23)C1 [Example 265, 5-tert-butyl-N-[3-(3-{[(3R)-1-(prop-2-enoyl)pyrrolidin-3-yl]amino}-1H-pyrazolo[3,4-b]pyridin-4-yl)phenyl]-1,2,4-oxadiazole-3-carboxamide]	0.2	2.78	014	0.875
C=CC(=O)N1CC[C@@H](Nc2n[nH]c3nccc(-c4cccc(NC(=O)c5noc(C(C)(C)C)n5)c4C)c23)C1 [Example 267, 5-tert-butyl-N-[2-methyl-3-(3-{[(3R)-1-(prop-2-enoyl)pyrrolidin-3-yl]amino}-1H-pyrazolo[3,4-b]pyridin-4-yl)phenyl]-1,2,4-oxadiazole-3-carboxamide]	0.164	0.901	005	0.553
